Measurements reported in US20050192279A1, “Pyridazinones as antagonists of alpha4 integrins” (priority 2004, published 2005).

Target: T1, human α4β7 integrin (Homo sapiens, UniProt P13612+P26010)
T1 construct: expressed in transfected cells; host or cells: K562 cells, stably transfected
T1 sequence (P13612 34-1032): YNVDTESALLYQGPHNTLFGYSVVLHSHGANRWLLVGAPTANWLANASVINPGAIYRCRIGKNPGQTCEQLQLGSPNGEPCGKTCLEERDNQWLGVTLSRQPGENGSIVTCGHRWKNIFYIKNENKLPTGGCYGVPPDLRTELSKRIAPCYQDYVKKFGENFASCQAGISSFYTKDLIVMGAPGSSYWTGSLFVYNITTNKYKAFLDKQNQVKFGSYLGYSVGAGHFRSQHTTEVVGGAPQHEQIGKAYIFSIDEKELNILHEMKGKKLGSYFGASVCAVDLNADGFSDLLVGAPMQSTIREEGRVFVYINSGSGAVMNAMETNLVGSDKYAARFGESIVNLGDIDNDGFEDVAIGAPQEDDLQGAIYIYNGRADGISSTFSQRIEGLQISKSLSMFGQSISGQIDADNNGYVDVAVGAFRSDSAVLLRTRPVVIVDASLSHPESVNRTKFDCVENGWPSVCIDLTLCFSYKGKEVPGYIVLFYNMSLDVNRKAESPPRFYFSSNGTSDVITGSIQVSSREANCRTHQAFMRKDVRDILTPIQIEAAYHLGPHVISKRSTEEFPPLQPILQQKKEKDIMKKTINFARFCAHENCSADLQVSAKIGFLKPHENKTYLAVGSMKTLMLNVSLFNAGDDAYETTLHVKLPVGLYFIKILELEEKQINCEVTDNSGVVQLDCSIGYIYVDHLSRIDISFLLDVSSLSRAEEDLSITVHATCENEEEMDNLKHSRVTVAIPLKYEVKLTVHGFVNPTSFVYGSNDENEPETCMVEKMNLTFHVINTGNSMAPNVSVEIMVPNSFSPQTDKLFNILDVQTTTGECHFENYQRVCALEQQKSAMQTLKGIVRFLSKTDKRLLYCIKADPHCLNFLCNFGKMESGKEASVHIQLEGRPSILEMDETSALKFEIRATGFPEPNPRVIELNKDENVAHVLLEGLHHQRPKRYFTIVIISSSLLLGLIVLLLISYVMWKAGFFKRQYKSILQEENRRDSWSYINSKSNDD
T1 sequence (P26010 20-798): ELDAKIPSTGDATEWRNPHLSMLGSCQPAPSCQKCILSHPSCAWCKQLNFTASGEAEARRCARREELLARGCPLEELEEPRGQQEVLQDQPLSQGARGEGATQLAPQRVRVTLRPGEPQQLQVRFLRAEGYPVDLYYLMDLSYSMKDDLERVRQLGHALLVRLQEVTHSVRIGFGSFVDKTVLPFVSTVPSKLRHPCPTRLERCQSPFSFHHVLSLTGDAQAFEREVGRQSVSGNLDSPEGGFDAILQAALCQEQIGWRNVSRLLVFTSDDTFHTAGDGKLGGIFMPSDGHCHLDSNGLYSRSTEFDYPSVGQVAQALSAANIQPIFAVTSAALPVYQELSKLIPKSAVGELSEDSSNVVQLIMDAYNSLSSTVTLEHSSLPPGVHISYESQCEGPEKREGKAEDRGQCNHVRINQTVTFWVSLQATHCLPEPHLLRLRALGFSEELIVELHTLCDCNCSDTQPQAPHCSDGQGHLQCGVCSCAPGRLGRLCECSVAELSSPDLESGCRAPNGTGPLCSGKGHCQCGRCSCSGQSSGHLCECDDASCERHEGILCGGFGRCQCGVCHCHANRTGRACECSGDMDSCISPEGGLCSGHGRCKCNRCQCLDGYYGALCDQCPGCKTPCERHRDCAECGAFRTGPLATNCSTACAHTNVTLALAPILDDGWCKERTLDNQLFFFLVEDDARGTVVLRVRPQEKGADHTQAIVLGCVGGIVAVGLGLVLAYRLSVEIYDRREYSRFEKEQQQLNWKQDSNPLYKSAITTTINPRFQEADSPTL
Assay: α4β7-K562 Cell Adhesion Assay (α4β7 Mediated Adhesion/MAdCAM-1)
Format: cell-based
Settings: α4β7-K562 cell adhesion to hMAdCAM-1; read-out: α4β7 IC50
In short: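 Anti-FLAG plates coated 1 h at 4° C with FLAG-hMAdCAM-1 in PBS pH 7.4, 1% BSA, 1 mM Mn2+. Stably transfected K562 cells expressing human α4β7, labelled with CFDA-SE, adhered with compound 1 h at room temperature. After four washes, bound cells lysed in 0.1 M NaOH for fluorescence read-out.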

Row | SMILES | IC50
1 | COc1cnn(CC(N)=O)c(=O)c1-c1ccc(C[C@H](NC(=O)c2c(Cl)cccc2Cl)C(=O)O)cc1 [Cpd 5] | 0.001 µM
2 | COc1cnn(CCN2CCOCC2)c(=O)c1-c1ccc(C[C@H](NC(=O)c2c(Cl)cccc2Cl)C(=O)O)cc1 [Cpd 10] | 0.002 µM
3 | COc1cnn(CC(=O)O)c(=O)c1-c1ccc(C[C@H](NC(=O)c2c(Cl)cccc2Cl)C(=O)O)cc1 [Cpd 11] | 0.002 µM
4 | COc1cnn(CCO)c(=O)c1-c1ccc(C[C@H](NC(=O)c2c(Cl)cccc2Cl)C(=O)O)cc1 [Cpd 15, (S)-2-(2,6-Dichloro-benzoylamino)-3{4-[2-(2-hydroxy-ethyl)-5-methoxy-3-oxo-2,3-dihydro-pyridazin-4-yl]-phenyl}-propionic acid] | 0.002 µM
5 | CNc1cnn(CC(C)=O)c(=O)c1-c1ccc(C[C@H](NC(=O)c2c(Cl)cccc2Cl)C(=O)O)cc1 [Cpd 18] | 0.003 µM
6 | O=C(N[C@@H](Cc1ccc(-c2c(OCc3cccnc3)cnn(CCO)c2=O)cc1)C(=O)O)c1c(Cl)cccc1Cl [Cpd 30] | 0.006 µM
7 | O=C(N[C@@H](Cc1ccc(-c2c(OCC3CC3)cnn(CCO)c2=O)cc1)C(=O)O)c1c(Cl)cccc1Cl [Cpd 35] | 0.008 µM
8 | Cn1ncc(N)c(-c2ccc(C[C@H](NC(=O)c3c(Cl)cccc3Cl)C(=O)O)cc2)c1=O [Cpd 46] | 0.013 µM
9 | O=C(N[C@@H](Cc1ccc(-c2c(N3CCOCC3)cnn(CCO)c2=O)cc1)C(=O)O)c1c(Cl)cccc1Cl [Cpd 61] | 0.02 µM
10 | COc1cnn(C)c(=O)c1-c1ccc(C[C@H](NC(=O)[C@@H]2C3CCC(CC3)N2C(=O)CCc2ccccc2)C(=O)O)cc1 [Cpd 89, 3-[4-(5-Methoxy-2-methyl-3-oxo-2,3-dihydro-pyridazin-4-yl)-phenyl]-2(S)-{[2-(3-phenyl-propionyl)-2-aza-bicyclo[2.2.2]octane-3(S)-carbonyl]-amino}-propionic acid] | 0.047 µM

The remaining lines, values ahead:

Row | IC50 | SMILES
11 | 0.113 µM | COc1cnn(CCO)c(=O)c1-c1ccc(C[C@H](NC(=O)OC(C)(C)C)C(=O)O)cc1 [Cpd 120]
12 | 0.274 µM | COC(=O)[C@H](Cc1ccc(-c2c(OC)cnn(C)c2=O)cc1)NC(=O)c1c(Cl)cccc1Cl [Cpd 151]
13 | 1.37 µM | COc1cnn(CCO)c(=O)c1-c1ccc(C[C@H](NC(=O)c2c(Cl)cccc2Cl)C(=O)OCCO)cc1 [Cpd 199]
14 | 2.69 µM | COc1cnn(C)c(=O)c1-c1ccc(C[C@H](NC(=O)c2c(Cl)cccc2Cl)C(=O)OCC(C)(C)C)cc1 [Cpd 207]
15 | > 5 µM | Cn1ncc(N)c(-c2ccc(C[C@H](NC(=O)c3c(Cl)cccc3Cl)C(=O)OCCO)cc2)c1=O [Cpd 232]
